One test deals with T1, KRAS^G12D (Homo sapiens, UniProt P01116, G12D).
T1 construct: GST-tagged KRAS WT or mutant proteins (amino acids 2-169)
Kind of test: KRAS nucleotide exchange assay (SOS1-mediated, HTRF). The class given is biochemical. The note with it: KRAS 20 nM, SOS1 12.5 nM, labeled GTP 0.15 µM, 60 min preincubation. The text has this: (§1) Evaluation of the inhibitory effect of compounds on SOS1-mediated nucleotide exchange activity of KRAS^WT, KRAS^G12D, and KRAS^G12V mutants
(§2) A method to monitor SOS1-mediated exchange of unlabeled KRAS-bound GDP and fluorescently labeled GTP, based on energy transfer between the donor Tb cryptate-labeled GST antibody and the acceptor DY-647P1 GTP when they are in close proximity.
(§3) • GST-tagged KRAS WT or mutant proteins (amino acids 2-169), • SOS1(amino acids 564-1049), • Labeled GTP (GTP-DY-647P1), • Assay Buffer (20 mM HEPES pH 7.4, 150 mM NaCl, 5 mM MgCl2, 1 mM DTT, 0.05% BSA, 0.0025% NP40)
(§4) • 1. KRAS protein was diluted with assay buffer to 1.5 times the final concentration, mixed with Tb cryptate anti-GST antibody, and 10 µL was added to each assay well (final concentration was 20 nM for KRAS^WT, KRAS^G12D, and KRAS^G12V). • 2. The compound was dissolved in DMSO and then diluted to prepare 100 times the final concentration. • 3. Compounds were dispensed into assay wells using an ECHO acoustic dispenser (Beckman), gently mixed with the KRAS/Ab mixture, and incubated for 60 minutes. • 4. SOS1 and labeled GTP were mixed and diluted to 3 times the final concentration with assay buffer, and 5 µL of the solution was added to the assay well to initiate the reaction (final concentration of labeled GTP was 0.15 µM, final concentration of SOS1 was 7.5 nM in WT, 12.5 nM in G12D, and 50 nM in G12V). Blank wells contained only assay buffer and labeled GTP. • 5. The reaction was monitored at Ex/Em=(337/665; 337/620) using a Pherastar Plate Reader (BMG). • 6. The HTRF signal was analyzed approximately 25 minutes after the start of the reaction (G12V reacted for 60 minutes). • 7. Nucleotide exchange activity was expressed as a percentage difference compared to the DMSO reaction value, and the IC50 value was calculated based on the four-parameter logistic equation in GraphPad 4.0 software. HTRF signal = ems 665/ems 620∗10000 [formula]

The target of the next test is T2, KRAS^G12V (Homo sapiens, UniProt P01116, G12V).
T2 construct: GST-tagged KRAS WT or mutant proteins (amino acids 2-169)
T2 sequence (P01116 2-169 isoform P01116-2 G12V): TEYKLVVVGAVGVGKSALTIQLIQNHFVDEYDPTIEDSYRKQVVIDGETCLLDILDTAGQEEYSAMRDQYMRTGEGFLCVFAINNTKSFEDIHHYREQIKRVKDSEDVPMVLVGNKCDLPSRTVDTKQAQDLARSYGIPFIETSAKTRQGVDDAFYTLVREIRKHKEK
The description is as above. The class given is biochemical. To be noted: KRAS 20 nM, SOS1 50 nM, labeled GTP 0.15 µM, reacted 60 minutes.
Description: as §1, §2, §3, §4

The subject of test [1] is AsPC-1 pancreatic cancer (KRAS G12D mutation) cells. Kind of test: Cell proliferation assay (CellTiter-Glo cell viability). To be noted: AsPC-1 cells, CellTiter-Glo 2.0. The format is cell-based. The procedure: (§5) Cell viability test of test compounds in AsPC-1 pancreatic cancer (KRAS G12D mutation) or SW480 colon cancer (KRAS G12V mutation) cells for 72 hours
(§6) The reference compound Staurosporine was purchased from Sigma-Aldrich (Saint Louis, […]), and CellTiter-Glo® 2.0 Luminescent cell viability assay reagent (cat# G9243) was purchased from Promega (Madison, WI). AsPC-1 and SW480 cell lines were purchased from the American Type Culture Collection (Manassas, VA). AsPC-1 cells were cultured in RPMI-1640 (ATCC, cat#30-2001), and SW480 cells were cultured in DMEM (ATCC cat#30-2002), supplemented with 10% FBS (Sigma-Aldrich, cat#F2442) and 100 µg/mL penicillin-streptomycin (Sigma-Aldrich, cat#P4333). Cells were cultured at 37 °C in a humidified atmosphere of 5 % CO2 and 95 % air.
(§7) • 1. The test compound and reference compound Staurosporine were dissolved in DMSO solution to prepare 20 mM (test compound) and 10 mM (reference compound Staurosporine) in the Source Plate, and diluted 3-fold and 10 doses with DMSO. • 2. Ten volumes of 125 nL test compound or 25 nL reference compound from the Source Plate were dispensed into wells of a 384-well culture plate (VWR, cat#82050-076) using an Echo 655. • 3. 25 µL of culture medium including 2000 AsPC-1 or SW480 cells was dispensed into each 384-well cell culture plate. • 4. Cells were cultured with compounds at 37 °C, 5 % CO2for 72 hours. • 5. 25 µL of CellTiter-Glo 2.0 reagent was added to each well of the plate. • 6. The contents were mixed in an orbital shaker for 2 minutes and the luminescence signal was stabilized at room temperature for 15 minutes. • 7. Luminescence signals were measured with an Envision 2104 Multilabel Reader (PerkinElmer, Santa Clara, CA), and the number of viable cells was determined by quantifying the ATP present in each culture medium. • 8. IC50 values were calculated based on the sigmoidal dose-response equation in the GraphPad Prism 4 program.

In test [2] the test system is SW480 colon cancer (KRAS G12V mutation) cells. The description is as above. The format is cell-based. To be noted: Homo sapiens, 72 hours, CellTiter-Glo 2.0. As to the method: as §5, §6, §7
The target in a further test is T3, KRAS^WT (Homo sapiens, UniProt P01116).
T3 construct: GST-tagged KRAS WT or mutant proteins (amino acids 2-169)
T3 sequence (P01116 2-169 isoform P01116-2): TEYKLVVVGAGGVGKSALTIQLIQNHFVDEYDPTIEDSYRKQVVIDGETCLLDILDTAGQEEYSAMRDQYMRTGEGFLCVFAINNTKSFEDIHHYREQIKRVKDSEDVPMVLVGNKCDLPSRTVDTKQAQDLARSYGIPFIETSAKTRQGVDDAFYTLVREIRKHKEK
Kind of test: KRAS nucleotide exchange assay (SOS1-mediated, HTRF). The class given is biochemical. To be noted: KRAS 20 nM, SOS1 7.5 nM, labeled GTP 0.15 µM.
Description: as §1, §2, §3, §4
(In TR-FRET formats the signal depends on donor and acceptor labels being close together.)

The target of a further test is T4, KRAS G12C (Homo sapiens, UniProt P01116, G12C).
T4 construct: GST-tagged KRAS WT or mutant proteins (amino acids 2-169)
T4 sequence (P01116 2-169 isoform P01116-2 G12C): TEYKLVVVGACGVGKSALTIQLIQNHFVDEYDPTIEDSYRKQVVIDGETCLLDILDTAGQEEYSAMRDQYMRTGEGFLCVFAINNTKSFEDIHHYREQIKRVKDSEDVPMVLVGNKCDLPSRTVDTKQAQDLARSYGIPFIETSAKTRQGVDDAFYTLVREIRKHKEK
Described as above. The format is biochemical. The note with it: conditions for G12C not described.

In the next test the target is T5, KRAS G13D (Homo sapiens, UniProt P01116, G13D).
T5 construct: GST-tagged KRAS WT or mutant proteins (amino acids 2-169)
T5 sequence (P01116 2-169 isoform P01116-2 G13D): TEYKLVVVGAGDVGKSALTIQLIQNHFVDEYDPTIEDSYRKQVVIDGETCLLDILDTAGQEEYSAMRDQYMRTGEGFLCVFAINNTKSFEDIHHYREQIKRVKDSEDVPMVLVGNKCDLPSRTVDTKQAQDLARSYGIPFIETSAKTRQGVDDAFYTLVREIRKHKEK
The description is as above. The format is biochemical. The note with it: conditions for G13D not described.

T1 sequence (P01116 2-169 isoform P01116-2 G12D): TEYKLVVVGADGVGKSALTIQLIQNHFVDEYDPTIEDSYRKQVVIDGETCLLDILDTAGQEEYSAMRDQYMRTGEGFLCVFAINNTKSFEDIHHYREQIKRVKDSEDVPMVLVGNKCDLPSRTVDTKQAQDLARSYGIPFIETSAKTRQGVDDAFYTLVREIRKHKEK

As for `C#Cc1c(F)ccc2cc(O)cc(-c3nc4c5c(nc(OC[C@@]67CCCN6C[C@H](F)C7)nc5c3F)N3CCNC[C@@H]3CCO4)c12` [Example 2, 5-ethynyl-6-fluoro-4-((S)-1-fluoro-12-(((2R,7aS)-2-fluorotetrahydro-1H-pyrrolizin-7a(5H)-yl)methoxy)-6,6a,7,8,9,10-hexahydro-5H-4-oxa-3,8,10a,11,13-pentaazabenzo[4,5]cycloocta[1,2,3-de]naphthalen-2-yl)naphthalen-2-ol], the IC50 (usually the concentration that inhibits the measured activity by half) against KRAS^G12D was 2.75 nM; on KRAS^G12V it was 2.89 nM; in test [1] (Homo sapiens, ASPC1, 72 h), more than 20000 nM; in test [2], more than 20 µM. `CCc1c(F)ccc2cc(O)cc(-c3nc4c5c(nc(OC[C@@]67CCCN6C[C@H](F)C7)nc5c3F)N3CCNC[C@@H]3CCO4)c12` [Example 1, 5-ethyl-6-fluoro-4-((S)-1-fluoro-12-(((2R,7aS)-2-fluorotetrahydro-1H-pyrrolizin-7a(5H)-yl)methoxy)-6,6a,7,8,9,10-hexahydro-5H-4-oxa-3,8,10a,11,13-pentaazabenzo[4,5]cycloocta[1,2,3-de]naphthalen-2-yl)naphthalen-2-ol]: the IC50 is 5.95 nM against KRAS^G12D; 6.5 nM on KRAS^WT; more than 20000 nM in test [1] (Homo sapiens, ASPC1, 72 h). The molecule `N#Cc1c(N)sc2c(F)ccc(-c3c(Cl)c4c5c(nc(OC[C@@]67CCCN6C[C@H](F)C7)nc5c3F)N3CCCOC[C@H]3CO4)c12` (single isomer, unassigned) [Example 12a] came in with an IC50 in test [1] (72 hours) of 2000 to 20000 nM. As to `Nc1nc2c(-c3c(Cl)c4c5c(nc(OC[C@@]67CCCN6C[C@H](F)C7)nc5c3F)N3CCCCCC3CO4)ccc(F)c2s1` (stereo partly drawn) [Example 6, 4-(3-chloro-1-fluoro-13-(((2R,7aS)-2-fluorotetrahydro-1H-pyrrolizin-7a(5H)-yl)methoxy)-5a,6,7,8,9,10-hexahydro-5H-azepino[2',1':3,4][1,4]oxazepino[5,6,7-de]quinazolin-2-yl)-7-fluorobenzo[d]thiazol-2-amine], the IC50 against KRAS^G12D was 5.9 nM; at KRAS^G12V it was 5.9 nM; against KRAS G12C, 2.36 nM; at KRAS G13D, 11.1 nM; in test [1] (Homo sapiens, ASPC1, 72 h) it was less than 2000 nM. `N#Cc1c(N)sc2c(F)ccc(-c3c(Cl)c4c5c(nc(OC[C@@]67CCCN6C[C@H](F)C7)nc5c3F)N3CCCOC[C@H]3CO4)c12` (single isomer, unassigned) [Example 12b] returned an IC50 in test [1] (Homo sapiens, ASPC1, 72 h) of less than 2000 nM.

Regarding `N#Cc1c(N)sc2c(F)ccc(-c3c(Cl)c4c5c(nc(OC[C@@]67CCCN6C[C@H](F)C7)nc5c3F)N3CCCCC[C@H]3CO4)c12` [Example 11b, 2-amino-4-(3-chloro-1-fluoro-13-(((2R,7aS)-2-fluorotetrahydro-1H-pyrrolizin-7a(5H)-yl)methoxy)-5a,6,7,8,9,10-hexahydro-5H-azepino[2',1':3,4][1,4]oxazepino[5,6,7-de]quinazolin-2-yl)-7-fluorobenzo[b]thiophene-3-carbonitrile], the IC50 in test [1] (Homo sapiens, ASPC1, 72 h) was less than 2000 nM. `N#Cc1c(N)sc2c(F)ccc(-c3c(Cl)c4c5c(nc(OC[C@@]67CCCN6C[C@H](F)C7)nc5c3F)N3CCCCC[C@@H]3CO4)c12` [Example 11a, 2-amino-4-(3-chloro-1-fluoro-13-(((2R,7aS)-2-fluorotetrahydro-1H-pyrrolizin-7a(5H)-yl)methoxy)-5a,6,7,8,9,10-hexahydro-5H-azepino[2',1':3,4][1,4]oxazepino[5,6,7-de]quinazolin-2-yl)-7-fluorobenzo[b]thiophene-3-carbonitrile] returned an IC50 in test [1] (Homo sapiens, ASPC1, 72 h) of 2000 to 20000 nM.

In turn, `Oc1cc(Cl)c(C2CC2)c(-c2nc3c4c(nc(OCC56CCCN5CC(F)C6)nc4c2F)N2CCNCC2CCO3)c1` [Example 4, 3-chloro-4-cyclopropyl-5-((S)-1-fluoro-12-(((2R,7aS)-2-fluorotetrahydro-1H-pyrrolizin-7a(5H)-yl)methoxy)-6,6a,7,8,9,10-hexahydro-5H-4-oxa-3,8,10a,11,13-pentaazabenzo[4,5]cycloocta[1,2,3-de]naphthalen-2-yl)phenol] displayed an IC50 on KRAS^G12D of 52.5 nM. Take `CCc1c(F)ccc2cc(O)cc(-c3nc4c5c(nc(OC[C@@]67CCCN6C[C@H](F)C7)nc5c3F)N3CCNC[C@@H]3CC(C)O4)c12` (stereo partly drawn) [Example 5, 5-ethyl-6-fluoro-4-((6aS)-1-fluoro-12-(((2R,7aS)-2-fluorotetrahydro-1H-pyrrolizin-7a(5H)-yl)methoxy)-5-methyl-6,6a,7,8,9,10-hexahydro-5H-4-oxa-3,8,10a,11,13-pentaazabenzo[4,5]cycloocta[1,2,3-de]naphthalen-2-yl)naphthalen-2-ol]: at KRAS^G12D, the IC50 turned out to be 12.5 nM. As to `Nc1nc2c(-c3c(Cl)c4c5c(nc(OC[C@@]67CCCN6C[C@H](F)C7)nc5c3F)N3CCNC[C@@H]3CCO4)ccc(F)c2s1` [Example 3, 4-((14aS)-11-chloro-9-fluoro-7-(((2R,7aS)-2-fluorotetrahydro-1H-pyrrolizin-7a(5H)-yl)methoxy)-1,3,4,13,14,14a-hexahydro-2H-pyrazino[1',2':5,6][1,5]oxazocino[4,3,2-de]quinazolin-10-yl)-7-fluorobenzo[d]thiazol-2-amine], the IC50 is 7.84 nM at KRAS^G12D and 2000 to 20000 nM in test [1] (Homo sapiens, ASPC1, 72 h). In turn, `Nc1nc2c(-c3c(Cl)c4c5c(nc(OC[C@@]67CCCN6C[C@H](F)C7)nc5c3F)N3CCCOC[C@H]3CO4)ccc(F)c2s1` [Example 7, 4-((14aS)-12-chloro-10-fluoro-8-(((2R,7aS)-2-fluorotetrahydro-1H-pyrrolizin-7a(5H)-yl)methoxy)-4,5,14,14a-tetrahydro-1H,3H-[1,4]oxazepino[3',4':3,4][1,4]oxazepino[5,6,7-de]quinazolin-11-yl)-7-fluorobenzo[d]thiazol-2-amine] came in with an IC50 in test [1] (Homo sapiens, ASPC1, 72 h) of less than 2000 nM.
